The subject of assay [1] is S. epidermidis HC3-CA-1. In words: MBC in isolation, subculture from MIC plates. The class given is cell-based. How it is done:
(§1) This new microtiter plate was incubated at 37° C. and growth was quantified after 24 h by measuring the optical density in the wells.

The subject of assay [2] is E. Coli HC1-R2A-1. In words: MBC in isolation, subculture from MIC plates. The class given is cell-based. Here is the method:
as §1

For assay [3], the system named is E. Coli HC1-R2A-1. The following applies: alone, 37° C., 24 h. How it is done:
(§2) Microbroth dilution in 96-well microtiter plates was performed on the E. coli and S. epidermidis strains. […] Each test was performed in duplicate. The MIC was determined as the lowest concentration where no growth was observed, but the adjacent wells had growth as determined by optical density.

The test system of assay [4] is E. Coli HC1-R2A-1. In words: MBC in combination, checkerboard titration and subculture. Conditions: in combination with tetracycline.
Description: (§3) Microtiter plates were incubated at 37° C. for 24 h and the results were analyzed. Each test included a growth control without addition of any antimicrobials, as well as an uninoculated control column to ensure there was no contamination in the plate. The combination MIC was taken as the concentration where no growth was observed by optical density but the wells immediately adjacent had growth. To determine the MBC, 5 μL aliquots were removed from each well in the 96-well MIC plates above and used to inoculate a new microtiter plate that was filled with Mueller-Hinton media. This new microtiter plate was incubated at 37° C. for 24 h and growth was quantified by measuring the optical density in the wells.
(§4) The potential interaction of the two antimicrobials was determined by the FICI (fractional inhibitory concentration index) and FBCI (fractional bactericidal concentration index).
In assay [5] the test system is E. Coli HC1-R2A-1. Description: MIC in combination, checkerboard titration. The following applies: in combination with tetracycline.
Description: as §3, §4
Assay [6] relates to S. epidermidis HC3-CA-1. In words: MIC in isolation, microbroth dilution. The class given is cell-based. How it is done: as §2
Assay [7] has as its system S. epidermidis HC3-CA-1. Description: MIC in combination, checkerboard titration. The following applies: in combination with tetracycline.
Description: as §3, §4
Assay [8] relates to S. epidermidis HC3-CA-1. In words: MBC in combination, checkerboard titration and subculture. The following applies: in combination with tetracycline.
Description: as §3, §4

Each structure is given as a SMILES string. ≈ marks a conversion by molar mass, not a printed value.

Take `O=C([O-])CN(CCN(CC(=O)[O-])CC(=O)[O-])CC(=O)[O-].[Na+].[Na+].[Na+].[Na+]` [T-EDTA, tetrasodium EDTA]: the “MBC in Isolation, T-EDTA” value in the assay with S. epidermidis HC3-CA-1 [1] (alone) was 4 wt %; against E. Coli HC1-R2A-1 [2] (alone), 1 wt %. The “MIC in Isolation, T-EDTA” value is on record as 1 wt % in the assay on E. Coli HC1-R2A-1 [3] and 0.0625 wt % in the assay with S. epidermidis HC3-CA-1 [6] (alone, 37° C., 24 h). Besides, the “MBC in Combination, T-EDTA” value in the assay with E. Coli HC1-R2A-1 [4] and in the assay with S. epidermidis HC3-CA-1 [8] was 0.25 wt % throughout. Further, the entries for the “MIC in Combination, T-EDTA” value in the assay on E. Coli HC1-R2A-1 [5] and in the assay on S. epidermidis HC3-CA-1 [7] were 0.25 wt % and 0.015 wt %, respectively.
For the compound `CN(C)[C@@H]1C(O)=C(C(N)=O)C(=O)[C@@]2(O)C(O)=C3C(=O)c4c(O)cccc4[C@@](C)(O)[C@H]3C[C@@H]12` [Tetracycline, tetracycline, reference compound], the MBC with S. epidermidis HC3-CA-1 [1] (Staphylococcus epidermidis, HC3CA1, read-out: MBC in Isolation, Tetracycline, alone) amounted to 8 µg/mL (≈ 18 µM); in the assay on E. Coli HC1-R2A-1 [2] (Escherichia coli, read-out: MBC in Isolation, Tetracycline, alone), 512 µg/mL (≈ 1150 µM). Also, the MIC in the assay with S. epidermidis HC3-CA-1 [6] (Staphylococcus epidermidis, HC3CA1, read-out: MIC in Isolation, Tetracycline, alone, 37° C., 24 h) came to 8 µg/mL (≈ 18 µM).

One may read the MBC as the lowest tested concentration that kills the bacteria rather than only halting them. As usually defined, the MIC is the smallest concentration in the dilution series that meets the test's criterion for growth inhibition.
